Values of other authors, collected in US20030143271A1, “Drug mixture with enhanced dissolution rate” (priority 2002, published 2003).

Legend:
[1] = target: platelet cyclooxygenase-1 (Homo sapiens, UniProt P23219); details: clinical relevance not clear
[2] = test system: antiplatelet effects of the aspirin; details: in combination with low-dose aspirin, healthy subjects

Chain of platelet cyclooxygenase-1 (P23219 24-599): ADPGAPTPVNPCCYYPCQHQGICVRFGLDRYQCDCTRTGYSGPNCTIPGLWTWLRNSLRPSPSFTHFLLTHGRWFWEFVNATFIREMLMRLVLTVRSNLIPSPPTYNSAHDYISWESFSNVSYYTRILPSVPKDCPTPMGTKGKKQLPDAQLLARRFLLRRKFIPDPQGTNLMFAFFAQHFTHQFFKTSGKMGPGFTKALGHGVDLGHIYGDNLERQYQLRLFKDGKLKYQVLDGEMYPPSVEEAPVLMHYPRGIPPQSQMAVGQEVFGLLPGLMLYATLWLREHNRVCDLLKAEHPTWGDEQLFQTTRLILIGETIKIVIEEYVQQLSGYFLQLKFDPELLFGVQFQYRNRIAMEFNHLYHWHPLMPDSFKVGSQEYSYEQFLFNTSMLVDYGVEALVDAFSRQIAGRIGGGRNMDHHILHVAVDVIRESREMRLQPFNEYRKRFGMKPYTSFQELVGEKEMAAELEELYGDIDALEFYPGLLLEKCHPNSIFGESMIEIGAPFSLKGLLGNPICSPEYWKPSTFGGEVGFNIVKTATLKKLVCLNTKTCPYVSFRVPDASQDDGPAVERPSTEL

Structure (SMILES)	effect on the antiplatelet activity of aspirin [1]	effect on antiplatelet effects of aspirin [2]
CS(=O)(=O)c1ccc(C2=C(c3ccccc3)C(=O)OC2)cc1 [rofecoxib]	some antagonistic effect	did not alter antiplatelet effects of the aspirin
Cc1onc(-c2ccccc2)c1-c1ccc(S(N)(=O)=O)cc1 [valdecoxib]	some antagonistic effect	
